From patent US10669272B2, “Substituted naphthyridinone compounds useful as T cell activators” (BRISTOL-MYERS SQUIBB COMPANY, priority 2018, dated 2020) come the findings set out here.

Where two headings read alike, the source gives them in different places.

One assay relates to Human venous whole blood. Kind of assay: Human whole blood IFN-γ assay.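 Further: blood from healthy donors exposed to compound for 1 h before stimulation with anti-CD3 and anti-CD28 at 1 µg/mL each, IFN-γ quantified in supernatant by AlphaLISA.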 The assay is classed as cell-based. The note with it: human whole blood, read-out: INFg Whole Blood Normalized Agonist EC50.
The target of a further assay is T1, human DGKα (Homo sapiens, UniProt P23743).
T1 construct: TVMV protease cleavage site (C); Hexa-His (C); made in house; host or cells: Sf9 insect cells (baculovirus, Bac-to-Bac)
Description: DGKα LIPGLO assay (extruded liposome substrate), in vitro DGK inhibition. The assay is classed as biochemical. The note with it: read-out: DGKa LIPGLO IC50.

The next assay concerns the target T2, human DGKζ (Homo sapiens, UniProt Q13574).
T2 construct: TVMV protease cleavage site (C); Hexa-His (C); made in house; host or cells: Sf9 insect cells (baculovirus, Bac-to-Bac)
Description: DGKζ LIPGLO assay (extruded liposome substrate), in vitro DGK inhibition. Type of assay: biochemical. The note with it: read-out: DGKz LIPGLO IC50.

The mark [1] stands for this setting: normalized to 3 μM reference compound with anti-CD3 plus anti-CD28 as 100% activation.
Setting [2] is: Homo sapiens, 24 h, anti-CD3 plus anti-CD28, 24 hours, 3 μM reference compound = 100% activation.
[3] abbreviates: anti-CD3 plus anti-CD28, 24 hours, 3 μM reference compound = 100% activation.
[4] abbreviates: Homo sapiens, 24 h, normalized to 3 μM reference compound with anti-CD3 plus anti-CD28 as 100% activation.

T1 sequence (P23743 with tags, fused parts or gaps): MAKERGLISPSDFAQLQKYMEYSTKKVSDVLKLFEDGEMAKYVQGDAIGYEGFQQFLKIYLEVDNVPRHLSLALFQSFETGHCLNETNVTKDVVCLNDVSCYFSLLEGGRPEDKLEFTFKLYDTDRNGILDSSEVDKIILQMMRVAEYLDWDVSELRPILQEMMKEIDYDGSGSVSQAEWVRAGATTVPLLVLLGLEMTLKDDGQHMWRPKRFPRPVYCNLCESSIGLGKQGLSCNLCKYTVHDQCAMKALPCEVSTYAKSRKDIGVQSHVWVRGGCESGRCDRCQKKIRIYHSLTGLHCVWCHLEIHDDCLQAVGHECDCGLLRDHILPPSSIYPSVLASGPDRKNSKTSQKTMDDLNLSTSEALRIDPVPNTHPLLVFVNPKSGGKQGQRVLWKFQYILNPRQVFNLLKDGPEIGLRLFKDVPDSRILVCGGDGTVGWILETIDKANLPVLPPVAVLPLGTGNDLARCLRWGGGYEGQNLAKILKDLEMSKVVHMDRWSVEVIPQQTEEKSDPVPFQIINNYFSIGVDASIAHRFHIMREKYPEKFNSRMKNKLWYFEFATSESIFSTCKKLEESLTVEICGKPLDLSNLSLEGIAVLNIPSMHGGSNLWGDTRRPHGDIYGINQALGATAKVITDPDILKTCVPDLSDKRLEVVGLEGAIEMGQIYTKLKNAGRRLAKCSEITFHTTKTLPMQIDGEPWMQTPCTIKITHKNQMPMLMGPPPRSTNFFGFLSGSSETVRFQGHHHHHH
T2 sequence (Q13574 with tags, fused parts or gaps isoform Q13574-4): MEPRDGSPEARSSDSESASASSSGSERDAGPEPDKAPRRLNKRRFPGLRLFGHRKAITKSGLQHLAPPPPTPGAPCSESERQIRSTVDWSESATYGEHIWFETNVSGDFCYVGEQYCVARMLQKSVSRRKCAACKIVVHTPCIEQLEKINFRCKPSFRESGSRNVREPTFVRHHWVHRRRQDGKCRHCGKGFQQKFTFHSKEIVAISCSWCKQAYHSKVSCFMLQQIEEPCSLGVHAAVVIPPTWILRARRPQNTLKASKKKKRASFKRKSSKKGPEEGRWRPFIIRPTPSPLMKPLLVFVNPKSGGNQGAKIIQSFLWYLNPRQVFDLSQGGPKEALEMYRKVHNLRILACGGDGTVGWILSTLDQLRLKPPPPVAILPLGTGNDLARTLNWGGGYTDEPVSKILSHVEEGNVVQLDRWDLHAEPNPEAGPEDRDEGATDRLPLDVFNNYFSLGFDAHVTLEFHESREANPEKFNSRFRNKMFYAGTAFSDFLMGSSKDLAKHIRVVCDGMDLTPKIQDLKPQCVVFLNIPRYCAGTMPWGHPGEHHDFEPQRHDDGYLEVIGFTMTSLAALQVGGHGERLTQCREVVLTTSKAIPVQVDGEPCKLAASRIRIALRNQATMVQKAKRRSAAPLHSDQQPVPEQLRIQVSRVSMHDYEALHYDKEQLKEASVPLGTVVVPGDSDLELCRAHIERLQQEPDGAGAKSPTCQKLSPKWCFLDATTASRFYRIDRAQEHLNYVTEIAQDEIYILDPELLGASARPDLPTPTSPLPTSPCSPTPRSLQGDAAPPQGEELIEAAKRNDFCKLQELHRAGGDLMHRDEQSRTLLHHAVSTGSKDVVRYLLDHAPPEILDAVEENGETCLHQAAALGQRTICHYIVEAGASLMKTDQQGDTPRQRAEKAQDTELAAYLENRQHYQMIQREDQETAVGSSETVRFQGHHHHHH
Description for Human venous whole blood: Human Whole Blood IFN-γ Assay
Human venous whole blood (22.5 μL per well), obtained from healthy donors, was pre-treated with compounds for one hour at 37° C. in a humidified 95% air/5% CO2 incubator. The blood was stimulated with 2.5 μL anti-human CD3 and anti-CD28 mAb at a final concentration of 1 μg/mL each for 24 hours at 37° C. IFN-γ in the supernatants was measured using AlphLISA kit (Cat # AL217).

As a reminder, the EC50 is the concentration needed to bring the measured effect to its halfway point. Broadly, the IC50 is the concentration at which inhibition is half-maximal. `CC[C@H]1CN(C(c2ccc(F)cc2)c2cccc(C(F)(F)F)n2)[C@H](C)CN1c1cc(=O)n(C)c2ccc(C#N)nc12` (single isomer, unassigned) [Example 1134]: the EC50 in the assay with Human venous whole blood (setting [1]) came to 0.34 µM. The values for the IC50 at human DGKα (liposome (LIPGLO) assay) and on human DGKζ (liposome (LIPGLO) assay) were 0.36 µM and 0.13 µM, respectively.
For `C[C@@H]1CN(c2cc(=O)n(C)c3ccc(C#N)nc23)[C@@H](C)CN1C(c1ccccc1)c1ccc(Cl)cc1` (single isomer, unassigned) [Example 671] the same measures were 1.2 µM, 3.3 µM and 3.2 µM.
On to `C[C@@H]1CN(c2cc(=O)n(C)c3ccc(C#N)nc23)[C@@H](C)CN1C(c1ccc(OC(F)(F)F)cc1)c1nc(C2CC2)no1` (single isomer, unassigned) [Example 758], for which, in the assay on Human venous whole blood (setting [2]), the EC50 stood at 0.3 µM. In addition, the IC50 on human DGKα (DGKα liposome (LIPGLO) assay) was 0.86 µM; at human DGKζ (DGKζ liposome (LIPGLO) assay) it was 0.075 µM.
Turning to `C[C@@H]1CN(c2cc(=O)n(C)c3ccc(C#N)nc23)[C@@H](C)CN1C(c1ccc(OC(F)(F)F)cc1)c1nc(C2CC2)no1` (single isomer, unassigned) [Example 759], the EC50 in the assay on Human venous whole blood (setting [3]) came out at 0.27 µM. Besides, the IC50 stood at 0.085 µM on human DGKα (DGKα liposome (LIPGLO) assay) and 0.29 µM on human DGKζ (DGKζ liposome (LIPGLO) assay).
With `CC(c1cc(F)cc(OC(F)(F)F)c1)N1C[C@H](C)N(c2cc(=O)n(C)c3ccc(C#N)nc23)C[C@H]1C` (single isomer, unassigned) [Example 1210], the EC50 with Human venous whole blood (setting [1]) turned out to be 0.88 µM. Besides, the IC50 on human DGKα (liposome (LIPGLO) assay) worked out at 9.3 µM; at human DGKζ (liposome (LIPGLO) assay), 0.018 µM.
Consider `C[C@@H]1CN(c2cc(=O)n(C)c3ccc(C#N)nc23)[C@@H](C)CN1Cc1ccc(OC(F)(F)F)c(Br)c1` [Example 629], for which the EC50 with Human venous whole blood (setting [4]) came to 4.2 µM. Besides, the IC50 at human DGKα (liposome (LIPGLO) assay) was found to be 11 µM; at human DGKζ (liposome (LIPGLO) assay), 18 µM.
Consider `C[C@@H]1CN(c2cc(=O)n(C)c3ccc(C#N)nc23)[C@@H](C)CN1C(c1ccc(F)cc1)c1nc(C2CC2)nn1C` (single isomer, unassigned) [Example 768], for which the EC50 in the assay on Human venous whole blood (setting [3]) worked out at 1.8 µM. The IC50 at human DGKα (DGKα liposome (LIPGLO) assay) is 14 µM; on human DGKζ (DGKζ liposome (LIPGLO) assay), 3.2 µM.
With `C[C@@H]1CN(c2cc(=O)n(C)c3ccc(C#N)nc23)[C@@H](C)CN1C(c1ccc(F)cc1)c1nnc(C2CC2)o1` (single isomer, unassigned) [Example 763], in the assay with Human venous whole blood (setting [2]), the EC50 is 1.8 µM. For the same compound, the results for the IC50 on human DGKα (DGKα liposome (LIPGLO) assay) and at human DGKζ (DGKζ liposome (LIPGLO) assay) were 4.5 µM and 0.76 µM, respectively.
`CC[C@@H]1CN(c2cc(=O)n(C)c3ccc(C#N)nc23)[C@@H](CC)CN1Cc1ccc(OC(F)(F)F)cc1F` [Example 1370]: the EC50 in the assay on Human venous whole blood (setting [4]) was 0.24 µM. In addition, the IC50 at human DGKα (liposome (LIPGLO) assay) is 0.023 µM; at human DGKζ (liposome (LIPGLO) assay), 0.14 µM.
Take `CC(c1ccc(C2(C#N)CC2)cc1)N1C[C@H](C)N(c2cc(=O)n(C)c3ccc(C#N)nc23)C[C@H]1C` (stereo partly drawn) [Example 1254]: in the assay with Human venous whole blood (setting [1]), the EC50 came out at 1.8 µM. The IC50 turned out to be 1.9 µM on human DGKα (liposome (LIPGLO) assay) and 0.34 µM at human DGKζ (liposome (LIPGLO) assay).
For the compound `CC(c1ccc(C(F)(F)F)cc1F)N1C[C@H](C)N(c2cc(=O)n(C)c3ccc(C#N)nc23)C[C@H]1C` (stereo partly drawn) [Example 431, 8-((2S,5R)-4-(1-(2-fluoro-4-(trifluoromethyl)phenyl)ethyl)-2,5-dimethylpiperazin-1-yl)-5-methyl-6-oxo-5,6-dihydro-1,5-naphthyridine-2-carbonitrile], the EC50 with Human venous whole blood (setting [4]) came to 1.6 µM. Also, the IC50 is 7.3 µM on human DGKα (liposome (LIPGLO) assay) and 1.1 µM at human DGKζ (liposome (LIPGLO) assay).
Consider `CCc1ccc(C(c2ccc(F)cc2)N2CCN(c3c(C#N)c(=O)n(C)c4ccc(C#N)nc34)C[C@H]2C)cc1` (stereo partly drawn) [Example 885], for which the EC50 in the assay with Human venous whole blood (setting [3]) worked out at 2.4 µM. Also, the IC50 on human DGKα (DGKα liposome (LIPGLO) assay) is 3 µM; at human DGKζ (DGKζ liposome (LIPGLO) assay), 1.2 µM.
For the compound `C[C@@H]1CN(c2c(C#N)c(=O)n(C)c3ccc(C#N)nc23)CCN1C(c1ccc(F)cc1)c1cn(C)cn1` (single isomer, unassigned) [Example 1026], the EC50 with Human venous whole blood (setting [1]) was 20 µM. The IC50 at human DGKα (liposome (LIPGLO) assay) was found to be 20 µM; on human DGKζ (liposome (LIPGLO) assay), 65 µM.
Regarding `CC[C@@H]1CN(c2cc(=O)n(C)c3ccc(C#N)nc23)[C@@H](C)CN1Cc1ccc(OC(F)(F)F)c(F)c1` [Example 1332], in the assay on Human venous whole blood (setting [4]), the EC50 worked out at 4.4 µM. Moreover, the IC50 at human DGKα (liposome (LIPGLO) assay) is 0.53 µM; at human DGKζ (liposome (LIPGLO) assay), 0.61 µM.
